From patent US20240099951A1, “HAIR GROWTH STIMULANT” (ADJUVANT HOLDINGS CO., LTD., priority 2020, published 2024)

How the values were obtained:
[1] = tested on: skin samples derived from C57BL/6N mouse dorsal body hair skin grafted onto Balb/c nu/nu mice; assay: Evaluation of hair growth activity: drug applied on skin samples transplanted in mice; assay type: in vivo
Experimental: C57BL/6N mice (male) and Balb/c nu/nu mice (female) were purchased from Japan SLC, Inc. (Japan) and bred, and were thereafter made available for the following testing. Note that the testing and breeding of animals complied with pertinent laws, regulations, ordinances, and guidelines, and was performed with the approval of the Experimental Ethics Review Board of the Institute of Physical and Chemical Research. The following reagents were respectively prepared. • Comparative Example 1: 60% aqueous ethanol solution • Comparative Example 2: 5% minoxidil solution • Comparative Example 3: 3% minoxidil solution • Comparative Example 4: 1% minoxidil solution • Working Example 1: 3% phytosphingosine solution • Working Example 2: 1% phytosphingosine solution To collect dorsal body hair skin in the form of anagen stage VI skin 12 to 14 days following depilation, C57BL/6N mice of age 7 to 8 weeks were depilated at locations where dorsal body hair skin was intended to be collected, and were bred for 12 to 14 days. The depilated C57BL/6N mice were thereafter euthanized by cervical dislocation, following which a suitable amount of dorsal body hair skin was collected from the locations at which dorsal body hair skin was intended to be collected. The collected skin was immersed in DMEM culture medium (hereinafter “DMEM 10”) which contained 10 mM HEPES, 10% fetal bovine serum, and 1% penicillin/streptomycin solution. The collected dorsal body hair skin was grasped with bent-nose curved tweezers and was treated by immersion for 10 seconds in a sterilizing solution. Sterilization treatment was performed by carrying out treatment with 7% povidone iodine solution two times, treatment with PBS (−) three times, and treatment with DMEM 10 two times, in this order, with fresh solutions respectively being used each time. Following sterilization treatment, these were immersed in clean DMEM 10. Following sterilization treatment, the dorsal body hair skin was cut into pieces and formed into blocks. The transparent connective tissue which adhered to the cutaneous muscle layer of the skin was excised therefrom using curved scissors, and hair groups were cut into rectangular strips in parallel fashion with respect to the direction of the wave of the hair. At this time, these were cut into blocks such that there were 6 rows of hair follicles along the long axis, adjustment having been carried out so that there were 5 rows of hair follicles along the short axis. The skin samples derived from dorsal body hair skin that were prepared in accordance with the foregoing were grafted onto Balb/c nu/nu mice of age 4 to 6 weeks. More specifically, mice were anesthetized in the usual way using isoflurane gas. The dorsal area of the mice was then disinfected using 7% povidone iodine solution, following which the mice were made to assume a naturally recumbent posture. In addition, a Mani ophthalmic knife (Mani, Inc.; Japan) was used to pierce the skin at the dorsal area of the mice, the grafts which were formed extending from the epidermal layer of the skin to the subdermal layer. The skin samples derived from dorsal body hair skin were inserted into the grafts formed thereat in such fashion as to cause the hair groups to be directed toward the body surface side of the grafts. Skin sample transplanted depth was adjusted so as to cause the top portion of the hair group to be in a state such that it was exposed at the top portion of the graft. To protect the grafts, Nurseban (registered trademark) (Sunplanet Co., Ltd.; Japan) and surgical tape (3M Japan Limited; Japan) were then used as protective tape to cover the grafts at which the skin samples derived from dorsal body hair skin had been transplanted. The protective tape was removed 5 to 7 days following transplantation, and survival of the transplanted skin samples derived from dorsal body hair skin was determined by visual inspection or digital microscopy (Keyence Corporation; Japan), after which follow-up observation was carried out. […]

[2] = tested on: hair groups derived from C57BL/6N dorsal body hair skin transplanted in Balb/c nu/nu mice; assay: Evaluation of hair-diameter-increasing activity (hair shafts grown after third cycle of Exemplary Test 1); assay type: in vivo
Experimental: Dorsal body hair skin was collected from C57BL/6N mice (SLC) of age 7 to 8 weeks in accordance with a procedure similar to that at Exemplary Test 1, above, the drug being applied after the hair groups derived from the dorsal body hair skin that had been fabricated were transplanted in Balb/c nu/nu mice (SLC) of age 4 to 6 weeks. Testing and breeding of animals complied with pertinent laws, regulations, ordinances, and guidelines, and was performed with the approval of the Experimental Ethics Review Board of the Institute of Physical and Chemical Research. The following three solutions were used during testing. • 60% aqueous ethanol solution • 5% minoxidil solution • 1% phytosphingosine solution Measurement of increase in hair diameter was carried out using hair shafts which had grown following completion of the third cycle at Exemplary Test 1. Of the hair shafts that were collected, two zigzag hairs were used. Three locations were selected in regions where diameter was large in the central portions thereof using a square 100 μm on a side. Measurement of selected regions was carried out at five locations. Hairs as they existed following application of the drug were used for measurement of hair shaft diameter.

[3] = 1% minoxidil solution (Comparative Example 4), second hair cycle
[4] = 1% minoxidil solution (Comparative Example 4), third hair cycle
[5] = 1% minoxidil solution, second hair cycle vs first hair cycle
[6] = 1% minoxidil solution, third hair cycle vs first hair cycle
[7] = 3% minoxidil solution (Comparative Example 3), second hair cycle
[8] = 3% minoxidil solution (Comparative Example 3), third hair cycle
[9] = 3% minoxidil solution, second hair cycle vs first hair cycle
[10] = 3% minoxidil solution, third hair cycle vs first hair cycle
[11] = 5% minoxidil solution (Comparative Example 2), second hair cycle
[12] = 5% minoxidil solution (Comparative Example 2), third hair cycle
[13] = 5% minoxidil solution, second hair cycle vs first hair cycle
[14] = 5% minoxidil solution, third hair cycle vs first hair cycle

Structure (SMILES): Nc1cc(N2CCCCC2)nc(N)[n+]1[O-] [minoxidil]
- Hair shaft elongation rate [1, 3]: 0.54 ± 0.08 mm/day
- Maximum hair shaft length [1, 3]: 5.2 ± 0.3 mm
- Hair shaft elongation rate [1, 4]: 0.44 ± 0.02 mm/day
- Maximum hair shaft length [1, 4]: 4.9 ± 0.4 mm
- Hair shaft elongation rate, percent change relative to reference data [1, 5]: 123.85%
- Maximum hair shaft length, percent change relative to reference data [1, 5]: 118.07%
- Hair shaft elongation rate, percent change relative to reference data [1, 6]: 100.24%
- Maximum hair shaft length, percent change relative to reference data [1, 6]: 111.10%
- Hair shaft elongation rate [1, 7]: 0.48 ± 0.07 mm/day
- Maximum hair shaft length [1, 7]: 5.2 ± 0.2 mm
- Hair shaft elongation rate [1, 8]: 0.53 ± 0.03 mm/day
- Maximum hair shaft length [1, 8]: 5.3 ± 0.3 mm
- Hair shaft elongation rate, percent change relative to reference data [1, 9]: 126.50%
- Maximum hair shaft length, percent change relative to reference data [1, 9]: 116.80%
- Hair shaft elongation rate, percent change relative to reference data [1, 10]: 139.36%
- Maximum hair shaft length, percent change relative to reference data [1, 10]: 120.09%
- Hair shaft elongation rate [1, 11]: 0.51 ± 0.03 mm/day
- Maximum hair shaft length [1, 11]: 6.0 ± 0.1 mm
- Hair shaft elongation rate [1, 12]: 0.55 ± 0.07 mm/day
- Maximum hair shaft length [1, 12]: 5.8 ± 0.1 mm
- Hair shaft elongation rate, percent change relative to reference data [1, 13]: 116.25%
- Maximum hair shaft length, percent change relative to reference data [1, 13]: 115.74%
- Hair shaft elongation rate, percent change relative to reference data [1, 14]: 126.11%
- Maximum hair shaft length, percent change relative to reference data [1, 14]: 112.62%
- Hair shaft diameter ([2]; 5% minoxidil solution applied, hair shafts after third cycle): 18.28 μm
- hair shaft diameter as percent of control ([2]; 5% minoxidil solution vs 60% aqueous ethanol solution): 115%
